Data from patent publication US20230167088A1, “1-PYRAZINYLPYRAZOLYL-3-OXYALKYL ACIDS AND THEIR DERIVATIVES, AND THEIR USE FOR CONTROL OF UNDESIRED PLANT GROWTH” (BAYER AKTIENGESELLSCHAFT, priority 2020, published 2023).

Tests used:
[1] = system: ECHCG; test: Herbicidal post-emergence action 1a (greenhouse pots, visual rating); format: in vivo, Echinochloa crus-galli; details: rated visually about 3 weeks after treatment, 100% = plants have died, 0% = like control plants
In short: (§1)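 Visual scoring versus untreated plants (100% = plants dead, 0% = as control) followed roughly 3 weeks in the greenhouse after treatment. Plants grown in sandy loam pots had been sprayed on green parts at the one-leaf stage, 2–3 weeks post-sowing, with aqueous WP/EC preparations containing 0.5% additive, 600 l/ha, at 320 and/or 80 g/ha.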

[2] = system: POLCO; test: as above; format: in vivo, Polygonum convolvulus; details: dosage 80 g/ha, visual rating about 3 weeks after treatment
In short: as §1

[3] = system: PHBPU; test: as above; format: in vivo, Pharbitis purpurea; details: dosage 80 g/ha, visual rating about 3 weeks after treatment
In short: as §1

[4] = system: ABUTH; test: as above; format: in vivo, Abutilon theophrasti; details: dosage 320 g/ha, visual rating about 3 weeks after treatment
In short: as §1

[5] = system: VIOTR; test: Herbicidal pre-emergence action 2a (greenhouse pots, visual scoring); format: in vivo, Viola tricolor; details: dosage 320 g/ha, visual scoring after about 3 weeks vs untreated controls
In short: (§2)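 Visual scoring after roughly 3 weeks, as percent effect relative to untreated pots (0% = like control, 100% = dead). Seeds were covered with soil, then the surface received aqueous WP/EC suspension or emulsion (0.5% additive, 600 l/ha) at 320 and/or 80 g/ha.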

[6] = system: VERPE; test: as above; format: in vivo, Veronica persica; details: dosage 320 g/ha, visual scoring after about 3 weeks vs untreated controls
In short: as §2

[7] = system: DIGSA; test: as above; format: in vivo, Digitaria sanguinalis; details: dosage 320 g/ha, visual scoring after about 3 weeks
In short: as §2

[8] = system: AMARE; test: as above; format: in vivo, Amaranthus retroflexus; details: dosage 320 g/ha, visual scoring after about 3 weeks vs untreated controls
In short: as §2

[9] = system: VIOTR; test: Herbicidal post-emergence action 1a (greenhouse pots, visual rating); format: in vivo, Viola tricolor; details: dosage 80 g/ha, visual rating about 3 weeks after treatment
In short: as §1

[10] = system: harmful plants; test: Herbicidal pre-emergence action 2a, summary across species; format: in vivo; details: Tables B1 to B15 (320 g/ha and/or 80 g/ha)
From the text: a) Seeds of monocotyledonous and dicotyledonous weed plants and crop plants are placed in plastic or organic plant pots and covered with soil. The compounds of the invention, formulated in the form of wettable powders (WP) or as emulsion concentrates (EC), are then applied onto the surface of the covering soil as aqueous suspension or emulsion with addition of 0.5% additive at a water application rate of 600 1/ha (converted). After the treatment, the pots are placed in a greenhouse and kept under good growth conditions for the trial plants. After about 3 weeks, the effect of the preparations is scored visually in comparison with untreated controls as percentages. For example, 100% activity=the plants have died, 0% activity=like control plants.
Tables B1 to B15 below show the effects of selected compounds of the general formula (I) according to Tables 1 and 2 on various harmful plants and an application rate corresponding to 320 g/ha and/or 80 g/ha, which were obtained by the experimental procedure mentioned above.
For example, compound nos. I-07, I-08, I-11, I-12, I-13, I-16, I-17, I-20, I-36, I-37, I-39, I-45, I-46, I-48, I-52 and I-53 in the pre-emergence method have very good action (80% to 100% herbicidal activity) against harmful plants such as Alopecurus myosuroides, Amaranthus retroflexus, Digitaria sanguinalis, Lolium rigidum, Polygonum convolvulus, Setaria viridis, Veronica persica and Viola tricolor at an application rate of 0.32 kg of active substance per hectare.

[11] = system: DIGSA; test: Herbicidal post-emergence action 1a (greenhouse pots, visual rating); format: in vivo, Digitaria sanguinalis; details: rated visually about 3 weeks after treatment, 100% = plants have died, 0% = like control plants
Description: (§3) [table] a) Seeds of monocotyledonous and dicotyledonous weeds and crop plants are placed in sandy loam in plastic or organic plant pots, covered with soil and cultivated in a greenhouse under controlled growth conditions. 2 to 3 weeks after sowing, the test plants are treated at the one-leaf stage. The compounds of the invention, formulated in the form of wettable powders (WP) or as emulsion concentrates (EC), are then sprayed onto the green parts of the plants as aqueous suspension or emulsion with addition of 0.5% additive at a water application rate of 600 1/ha (converted). After the test plants have been kept in the greenhouse under optimum growth conditions for about 3 weeks, the activity of the preparations is rated visually in comparison to untreated controls. For example, 100% activity=the plants have died, 0% activity=like control plants. Tables A1 to A15 below show the effects of selected compounds of the general formula (I) according to Tables 1 and 2 on various harmful plants and an application rate corresponding to 320 g/ha and/or 80 g/ha, which were obtained by the experimental procedure mentioned above.

[12] = system: AMARE; test: as above; format: in vivo, Amaranthus retroflexus; details: dosage 80 g/ha, visual rating about 3 weeks after treatment
In short: as §1

[13] = system: MATIN; test: as above; format: in vivo, Matricaria inodora; details: dosage 320 g/ha, visual rating about 3 weeks after treatment
In short: as §1

[14] = system: LOLRI; test: as above; format: in vivo, Lolium rigidum; details: Dosage 80 g/ha; rated visually about 3 weeks after treatment; 100% = plants have died, 0% = like control plants
In short: as §1

[15] = system: VERPE; test: as above; format: in vivo, Veronica persica; details: dosage 80 g/ha, visual rating about 3 weeks after treatment
In short: as §1

[16] = system: STEME; test: Herbicidal pre-emergence action 2a (greenhouse pots, visual scoring); format: in vivo, Stellaria media; details: dosage 320 g/ha, visual scoring after about 3 weeks vs untreated controls
From the text: (§4) [table] a) Seeds of monocotyledonous and dicotyledonous weed plants and crop plants are placed in plastic or organic plant pots and covered with soil. The compounds of the invention, formulated in the form of wettable powders (WP) or as emulsion concentrates (EC), are then applied onto the surface of the covering soil as aqueous suspension or emulsion with addition of 0.5% additive at a water application rate of 600 1/ha (converted). After the treatment, the pots are placed in a greenhouse and kept under good growth conditions for the trial plants. After about 3 weeks, the effect of the preparations is scored visually in comparison with untreated controls as percentages. For example, 100% activity=the plants have died, 0% activity=like control plants. Tables B1 to B15 below show the effects of selected compounds of the general formula (I) according to Tables 1 and 2 on various harmful plants and an application rate corresponding to 320 g/ha and/or 80 g/ha, which were obtained by the experimental procedure mentioned above.

[17] = system: HORMU; test: Herbicidal post-emergence action 1a (greenhouse pots, visual rating); format: in vivo, Hordeum murinum; details: rated visually about 3 weeks after treatment, 100% = plants have died, 0% = like control plants
Description: as §3

[18] = system: ECHCG; test: Herbicidal pre-emergence action 2a (greenhouse pots, visual scoring); format: in vivo, Echinochloa crus-galli; details: dosage 320 g/ha, visual scoring after about 3 weeks
In short: as §2

[19] = system: AVEFA; test: as above; format: in vivo, Avena fatua; details: dosage 320 g/ha, visual scoring after about 3 weeks
In short: as §2

[20] = system: HORMU; test: as above; format: in vivo, Hordeum murinum; details: dosage 320 g/ha, visual scoring after about 3 weeks vs untreated controls
From the text: as §4

[21] = system: AVEFA; test: Herbicidal post-emergence action 1a (greenhouse pots, visual rating); format: in vivo, Avena fatua; details: Dosage 80 g/ha; rated visually about 3 weeks after treatment; 100% = plants have died, 0% = like control plants
In short: as §1

[22] = system: ALOMY; test: Herbicidal pre-emergence action 2a (greenhouse pots, visual scoring); format: in vivo, Alopecurus myosuroides; details: dosage 320 g/ha, visual scoring after about 3 weeks
In short: as §2

[23] = system: SETVI; test: as above; format: in vivo, Setaria viridis; details: dosage 320 g/ha, visual scoring after about 3 weeks vs untreated controls
In short: as §2

[24] = system: STEME; test: Herbicidal post-emergence action 1a (greenhouse pots, visual rating); format: in vivo, Stellaria media; details: Dosage 80 g/ha; rated visually about 3 weeks after treatment; 100% = plants have died, 0% = like control plants
Description: as §3

[25] = system: POLCO; test: Herbicidal pre-emergence action 2a (greenhouse pots, visual scoring); format: in vivo, Polygonum convolvulus; details: dosage 320 g/ha, visual scoring after about 3 weeks vs untreated controls
In short: as §2

[26] = system: ALOMY; test: Herbicidal post-emergence action 1a (greenhouse pots, visual rating); format: in vivo, Alopecurus myosuroides; details: Dosage 80 g/ha; rated visually about 3 weeks after treatment; 100% = plants have died, 0% = like control plants
In short: as §1

C=CCOC(=O)C(C)Oc1nn(-c2cnccn2)c(-c2ccc(F)nc2)c1Br (racemic) [Example I-13] was tested, and the “Post-emergence action against ECHCG in %” value ([1]; Dosage 80 g/ha) was 80%, the “Post-emergence action against ECHCG in %” value ([1]; Dosage 320 g/ha) was 90% and the “Post-emergence action against POLCO in %” value [2] was 80%. The “Post-emergence action against PHBPU in %” value [3] was 80%, the “Post-emergence action against ABUTH in %” value [4] was 80% and the “Pre-emergence action against VIOTR in %” value [5] was 100%. For the same molecule, the “Pre-emergence action against VERPE in %” value [6] was 100%, the “Pre-emergence action against DIGSA in %” value [7] was 100% and the “Pre-emergence action against AMARE in %” value [8] was 100%. The “Post-emergence action against VIOTR in %” value [9] was 90%, the “herbicidal efficacy against harmful plants in the case of pre-emergence treatment (in words)” value [10] was “good herbicidal efficacy” and the “Post-emergence action against DIGSA in %” value ([11]; Dosage 80 g/ha) was 80%. The “Post-emergence action against DIGSA in %” value ([11]; Dosage 320 g/ha) was 90%, the “Post-emergence action against AMARE in %” value [12] was 80% and the “Post-emergence action against MATIN in %” value [13] was 80%. For the same molecule, the “Post-emergence action against LOLRI in %” value [14] was 80%, the “Post-emergence action against VERPE in %” value [15] was 90% and the “Pre-emergence action against STEME in %” value [16] was 90%. The “Post-emergence action against HORMU in %” value ([17]; Dosage 80 g/ha) was 90%, the “Post-emergence action against HORMU in %” value ([17]; Dosage 320 g/ha) was 90% and the “Pre-emergence action against ECHCG in %” value [18] was 100%. The “Pre-emergence action against AVEFA in %” value [19] was 90%, the “Pre-emergence action against HORMU in %” value [20] was 100% and the “Post-emergence action against AVEFA in %” value [21] was 100%. The “Pre-emergence action against ALOMY in %” value [22] was 100%, the “Pre-emergence action against SETVI in %” value [23] was 100% and the “Post-emergence action against STEME in %” value [24] was 90%. The “Pre-emergence action against POLCO in %” value [25] was 90% and the “Post-emergence action against ALOMY in %” value [26] was 90%.
